Assay: Steady-state plasma LPV pharmacokinetics with and without African potato
Format: in vivo, human
Settings: for CLF (apparent clearance), arithmetic mean (SD): LPV; for AUC: AUCτ; for concentration at 12 h: Ctrough
[1] = plasma LPV, steady state, day 21, LPV/r plus African potato, n = 16
[2] = plasma LPV, expressed as a percentage of the GM of LPV/r alone, n = 16

CLF (apparent clearance), arithmetic mean (SD) (steady state, day 14, LPV/r alone, n = 16): 4.61 (1.56) l/h
CLF (apparent clearance), arithmetic mean (SD) (steady state, day 21, LPV/r plus African potato, n = 16): 4.64 (1.32) l/h
Cmax (human, plasma, oral): 10100 ng/mL
AUC (human, plasma, oral, arithmetic mean (SD), plasma LPV, steady state, day 14, LPV/r 400/100 mg twice daily alone, n = 16): 94400 ng·h/mL
AUC (human, plasma, oral, arithmetic mean (SD), plasma LPV, steady state, day 21, LPV/r 400/100 mg twice daily plus African potato four capsules once daily for 7 days, n = 16): 93200 ng·h/mL
concentration at 12 h (human, plasma, oral, arithmetic mean (SD), plasma LPV, steady state, day 14, LPV/r alone, n = 16): 4850 ng/mL
concentration at 12 h (human, plasma, oral, arithmetic mean (SD), plasma LPV, steady state, day 21, LPV/r plus African potato, n = 16): 4900 ng/mL
concentration at 12 h (human, plasma, oral, geometric mean, plasma LPV, steady state, day 14, LPV/r alone, n = 16): 4130 ng/mL
concentration at 12 h (human, plasma, oral, geometric mean, plasma LPV, steady state, day 21, LPV/r plus African potato, n = 16): 4380 ng/mL
AUCτ, geometric mean (plasma LPV, steady state, day 14, LPV/r alone, n = 16): 90780 ng·h/mL
AUCτ, geometric mean [1]: 89660 ng·h/mL
Cmax, arithmetic mean (SD) [1]: 10.18 (2.25) μg/ml
AUCτ, PE (point estimate of the ratio of geometric means of LPV/r plus African potato and LPV/r) [2]: 98.77%
Cmax, PE (point estimate of the ratio of geometric means of LPV/r plus African potato and LPV/r) [2]: 100.90%
Ctrough, PE (point estimate of the ratio of geometric means of LPV/r plus African potato and LPV/r) [2]: 105.98%
Structure (SMILES): Cc1cccc(C)c1OCC(=O)N[C@@H](Cc1ccccc1)[C@@H](O)C[C@H](Cc1ccccc1)NC(=O)[C@H](C(C)C)N1CCCNC1=O [LPV, Lopinavir]

Reference: paper PMC3776002 (International journal of infectious diseases : IJID : …, 2013)
